The record followed here is US12612380B2, “Non-lysosomal glucosylceramidase inhibitors and uses thereof” (ALECTOS THERAPEUTICS INC., priority 2019, dated 2026).

The assay concerns the target T1, GBA2 (Homo sapiens, UniProt Q9HCG7).
T1 sequence (Q9HCG7 1-927): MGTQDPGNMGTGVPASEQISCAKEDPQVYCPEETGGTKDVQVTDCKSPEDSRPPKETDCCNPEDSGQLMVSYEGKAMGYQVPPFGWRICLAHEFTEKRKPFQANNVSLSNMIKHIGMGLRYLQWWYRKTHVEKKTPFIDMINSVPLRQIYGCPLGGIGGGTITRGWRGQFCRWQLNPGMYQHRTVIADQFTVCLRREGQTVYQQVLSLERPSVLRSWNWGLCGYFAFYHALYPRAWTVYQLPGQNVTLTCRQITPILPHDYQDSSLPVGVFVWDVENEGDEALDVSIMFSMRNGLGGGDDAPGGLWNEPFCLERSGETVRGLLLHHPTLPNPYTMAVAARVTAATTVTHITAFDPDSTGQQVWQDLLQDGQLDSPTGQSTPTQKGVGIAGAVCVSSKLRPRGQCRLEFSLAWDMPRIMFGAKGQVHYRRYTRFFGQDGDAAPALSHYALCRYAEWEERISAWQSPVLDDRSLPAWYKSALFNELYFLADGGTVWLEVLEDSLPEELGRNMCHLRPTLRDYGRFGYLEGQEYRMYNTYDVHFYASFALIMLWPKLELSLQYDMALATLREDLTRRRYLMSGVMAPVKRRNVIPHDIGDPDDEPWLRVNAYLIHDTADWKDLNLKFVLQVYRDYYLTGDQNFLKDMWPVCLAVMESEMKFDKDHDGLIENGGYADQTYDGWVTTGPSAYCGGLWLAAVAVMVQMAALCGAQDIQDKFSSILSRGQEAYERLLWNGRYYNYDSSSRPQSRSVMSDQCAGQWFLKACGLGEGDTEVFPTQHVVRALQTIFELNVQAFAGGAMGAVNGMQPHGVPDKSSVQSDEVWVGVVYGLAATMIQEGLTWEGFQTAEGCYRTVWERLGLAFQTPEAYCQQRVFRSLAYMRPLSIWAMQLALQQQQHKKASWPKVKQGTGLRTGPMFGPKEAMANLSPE
Kind of assay: Determination of IC50 values for inhibition of GBA2 in cell lysate. It is filed as biochemical. More on the design: host or cells: HEK293T (lentiviral transduction, puromycin selection); used as cellular homogenate. An excerpt: Assay for Determination of IC50 Values for Inhibition of GBA2 in Cell Lysate
Stable GBA2-expressing HEK293T cells were generated as follows. The PCR-amplified human GBA2 (GBA2 nucleotide accession number BC011363) using the following primers: Sense 5′---CGCAAATGGGCGGTAGGCGTG (SEQ ID NO:2)---3′ and antisense 5′---TAGTCAGCCATGGGGCGGAGA (SEQ ID NO:3)---3′) was cloned into pLenti-GIII-CMV by ABM Inc. The correctness of the construct was verified by sequencing. Lentivirus particles containing GBA2 in the pLenti-GIII-CMV plasmid were prepared using a third Generation Virus Packaging Mix (ABM cat #LV053-G074) in HEK293T cells and supplied as a virus particle suspension. The virus suspension was used for infection of HEK293T cells. Cell populations stably expressing human GBA2 were selected using puromycin for several weeks as determined by activity assays and western blot.
Various concentrations of test compounds were prepared in DMSO and then diluted into buffer consisting of 100 mM citric acid, 200 mM disodium phosphate with 1% v/v C10E6, pH 5.5. Cellular homogenates (0.25 mg/mL) of the stable HEK293T-overexpressing GBA2 cell line were preincubated for 10 min on ice with an inhibitor of GCase (20 μM (6R,7R,8S)-8-ethyl-4-azaspiro[2.5]octane-6,7-diol). The reaction solution consisted of 20 μL of 750 μM 4-methylumbelliferone-β-D glucopyranoside in 5% DMSO in the same buffer, 20 μL of GBA2-cellular homogenate pre-treated with (6R,7R,8S)-8-ethyl-4-azaspiro[2.5]octane-6,7-diol and 20 μL of various concentrations of test compound in 10% DMSO in the same buffer. The final concentrations in the reaction were 0.083 mg/mL GBA2-cellular homogenate, 250 μM 4-methylumbelliferone-β-D glucopyranoside, and various concentrations of inhibitor. The inhibitor and GBA2-cellular homogenate were preincubated together for 5 min at 37° C. The reaction was initiated by addition of substrate and allowed to proceed for 20 min at 37° C. to assess GBA2 activity. Reactions were stopped by the addition of an equal volume (60 μL) of 0.5 M NaOH, 0.3 M glycine, pH 10.5. Fluorescence was measured on a Biotek Synergy H4 plate reader at wavelengths of 365 nm for excitation and 450 nm for emission. Incubations without added enzyme or added inhibitors were used to define no enzyme activity and maximal enzyme activity, respectively. IC50 values were determined by fitting the data to a log[inhibitor concentration] versus response curve using GraphPad Prism. IC50 values were calculated as the concentration of inhibitor required to inhibit GBA2 activity by 50%.

Where [1] appears, read: cellular homogenate of HEK293T cells overexpressing human GBA2, 250 μM 4-methylumbelliferone-β-D glucopyranoside, pH 5.5, 37° C., GCase inhibitor present, read-out: GBA2 IC50.

Read-outs that look alike come from different tables or passages of the source.

For orientation: IC50 means the point on the concentration scale where inhibition reaches its midpoint. Take `C[C@@H]1[C@@H](O)[C@H](O)[C@@H](O)CN1CCc1cccs1` [Example 74, (2R,3R,4R,5S)-2-methyl-1-(2-(thiophen-2-yl)ethyl)piperidine-3,4,5-triol]: the 50% inhibitory concentration (IC50) was in the range of 0.1 to 1 µM. Consider `C[C@@H]1[C@@H](O)[C@H](O)[C@@H](O)CN1CCc1ccsc1` [Example 75, (2R,3R,4R,5S)-2-methyl-1-(2-(thiophen-3-yl)ethyl)piperidine-3,4,5-triol], for which the concentration for half-maximal inhibition (IC50) was 0.1 to 1 µM. In the case of `C[C@@H]1[C@@H](O)[C@H](O)[C@@H](O)CN1CCc1ccccn1` [Example 76, (2R,3R,4R,5S)-2-methyl-1-(2-(pyridin-2-yl)ethyl)piperidine-3,4,5-triol], the IC50 under setting [1] lay within 1 to 25 µM.

For `C[C@@H]1[C@@H](O)[C@H](O)[C@@H](O)CN1CCCc1ccccc1` [Example 77, (2R,3R,4R,5S)-2-methyl-1-(3-phenylpropyl)piperidine-3,4,5-triol], the half-inhibitory concentration (IC50) under setting [1] was less than 0.1 µM. On the same count and under the same terms, the same measure for `C[C@@H]1[C@@H](O)[C@H](O)[C@@H](O)CN1CCCc1ccccc1F` [Example 78, (2R,3R,4R,5S)-1-(3-(2-fluorophenyl)propyl)-2-methylpiperidine-3,4,5-triol]: less than 0.1 µM; for `C[C@@H]1[C@@H](O)[C@H](O)[C@@H](O)CN1CCCc1ccc(F)cc1` [Example 79, (2R,3R,4R,5S)-1-(3-(4-fluorophenyl)propyl)-2-methylpiperidine-3,4,5-triol]: less than 0.1 µM.

For `C[C@@H]1[C@@H](O)[C@H](O)[C@@H](O)CN1CCCc1cccs1` [Example 80, (2R,3R,4R,5S)-2-methyl-1-(3-(thiophen-2-yl)propyl)piperidine-3,4,5-triol], the IC50 under setting [1] was less than 0.1 µM. For `C[C@@H]1[C@@H](O)[C@H](O)[C@@H](O)CN1CCCc1ccsc1` [Example 81, (2R,3R,4R,5S)-2-methyl-1-(3-(thiophen-3-yl)propyl)piperidine-3,4,5-triol], the half-maximal inhibitory concentration (IC50) under setting [1] was less than 0.1 µM. The same measure, in the same setting: then `C[C@@H]1[C@@H](O)[C@H](O)[C@@H](O)CN1CC1CCN(c2ccccc2)CC1` [Example 82, (2R,3R,4R,5S)-2-methyl-1-((1-phenylpiperidin-4-yl)methyl)piperidine-3,4,5-triol], with 0.1 to 1 µM; and `C[C@@H]1[C@@H](O)[C@H](O)[C@@H](O)CN1CC1CCN(c2ccccc2F)CC1` [Example 83, (2R,3R,4R,5S)-1-((1-(2-fluorophenyl)piperidin-4-yl)methyl)-2-methylpiperidine-3,4,5-triol], with less than 0.1 µM. On the same count and under the same terms, then `C[C@@H]1[C@@H](O)[C@H](O)[C@@H](O)CN1CC1CCN(c2cccc(F)c2)CC1` [Example 84, (2R,3R,4R,5S)-1-((1-(3-fluorophenyl)piperidin-4-yl)methyl)-2-methylpiperidine-3,4,5-triol], with less than 0.1 µM; and `C[C@@H]1[C@@H](O)[C@H](O)[C@@H](O)CN1CC1CCN(c2ccc(C(F)(F)F)cc2)CC1` [Example 86, (2R,3R,4R,5S)-2-methyl-1-((1-(4-(trifluoromethyl)phenyl)piperidin-4-yl)methyl)piperidine-3,4,5-triol], with less than 0.1 µM. Same read-out and setting: the same measure for `C[C@@H]1[C@@H](O)[C@H](O)[C@@H](O)CN1CC1(C)CCN(c2ccccc2)CC1` [Example 87, (2R,3R,4R,5S)-2-methyl-1-((4-methyl-1-phenylpiperidin-4-yl)methyl)piperidine-3,4,5-triol]: 1 to 25 µM; for `C[C@@H]1[C@@H](O)[C@H](O)[C@@H](O)CN1CC1(F)CCN(c2ccccc2)CC1` [Example 88, (2R,3R,4R,5S)-1-((4-fluoro-1-phenylpiperidin-4-yl)methyl)-2-methylpiperidine-3,4,5-triol]: 0.1 to 1 µM. `C[C@@H]1[C@@H](O)[C@H](O)[C@@H](O)CN1CCC1CCN(c2ccccc2)CC1` [Example 89, (2R,3R,4R,5S)-2-methyl-1-(2-(1-phenylpiperidin-4-yl)ethyl)piperidine-3,4,5-triol]: the IC50 under setting [1] was less than 0.1 µM. With `C[C@@H]1[C@@H](O)[C@H](O)[C@@H](O)CN1CC1CCN(c2cccnc2)CC1` [Example 90, (2R,3R,4R,5S)-2-methyl-1-((1-(pyridin-3-yl)piperidin-4-yl)methyl)piperidine-3,4,5-triol], the half-maximal inhibitory concentration (IC50) under setting [1] was 1 to 25 µM.

`C[C@@H]1[C@@H](O)[C@H](O)[C@@H](O)CN1CC1CCN(CC(F)(F)F)CC1` [Example 91, (2R,3R,4R,5S)-2-methyl-1-((1-(2,2,2-trifluoroethyl)piperidin-4-yl)methyl)piperidine-3,4,5-triol]: the IC50 under setting [1] lay within 0.1 to 1 µM. Still for that read-out and setting: then `CC(C)C(=O)N1CCC(CN2C[C@H](O)[C@@H](O)[C@H](O)[C@H]2C)CC1` [Example 92, 2-methyl-1-(4-(((2R,3R,4R,5S)-3,4,5-trihydroxy-2-methylpiperidin-1-yl)methyl)piperidin-1-yl)propan-1-one], with 1 to 25 µM; and `C[C@@H]1[C@@H](O)[C@H](O)[C@@H](O)CN1CC1CCN(C(=O)C(C)(C)C)CC1` [Example 93, 2,2-dimethyl-1-(4-(((2R,3R,4R,5S)-3,4,5-trihydroxy-2-methylpiperidin-1-yl)methyl)piperidin-1-yl)propan-1-one], with 0.1 to 1 µM; and `CCCC(=O)N1CCC(CN2C[C@H](O)[C@@H](O)[C@H](O)[C@H]2C)CC1` [Example 94, 1-(4-(((2R,3R,4R,5S)-3,4,5-trihydroxy-2-methylpiperidin-1-yl)methyl)piperidin-1-yl)butan-1-one], with 1 to 25 µM.

Turning to `CC(C)CC(=O)N1CCC(CN2C[C@H](O)[C@@H](O)[C@H](O)[C@H]2C)CC1` [Example 95, 3-methyl-1-(4-(((2R,3R,4R,5S)-3,4,5-trihydroxy-2-methylpiperidin-1-yl)methyl)piperidin-1-yl)butan-1-one], the IC50 under setting [1] was in the range of 0.1 to 1 µM.

`C[C@@H]1[C@@H](O)[C@H](O)[C@@H](O)CN1CC1CCN(C(=O)CC(C)(C)C)CC1` [Example 96, 3,3-dimethyl-1-(4-(((2R,3R,4R,5S)-3,4,5-trihydroxy-2-methylpiperidin-1-yl)methyl)piperidin-1-yl)butan-1-one]: the half-maximal inhibitory concentration (IC50) under setting [1] lay within 0.1 to 1 µM. Same read-out and setting: then `C[C@@H]1[C@@H](O)[C@H](O)[C@@H](O)CN1CC1CCN(C(=O)CC2CCCC2)CC1` [Example 97, 2-cyclopentyl-1-(4-(((2R,3R,4R,5S)-3,4,5-trihydroxy-2-methylpiperidin-1-yl)methyl)piperidin-1-yl)ethanone], with 0.1 to 1 µM; and `C[C@@H]1[C@@H](O)[C@H](O)[C@@H](O)CN1CC1CCN(C(=O)C2CC2)CC1` [Example 98, cyclopropyl(4-(((2R,3R,4R,5S)-3,4,5-trihydroxy-2-methylpiperidin-1-yl)methyl)piperidin-1-yl)methanone], with 1 to 25 µM.
